In PubChem BioAssay (NCI):
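Compound exposure: 48 hours, 5 concentrations, 96-well plates. GI50 = concentration required for 50% inhibition of growth. TGI denotes the concentration required for complete inhibition of growth.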

Experiments:
Assay in all cases: NCI tumour cell line growth inhibition, 48 h
[1] = test system: NCI-H522 lung
[2] = test system: HOP-62 NSCLC
[3] = test system: KM12 colon
[4] = test system: ACHN renal
[5] = test system: SF-295 CNS
[6] = test system: NCI-H460 lung
[7] = test system: OVCAR-5 ovarian
[8] = test system: MDA-MB-231 breast
[9] = test system: SF-539 CNS
[10] = test system: MCF7 breast

Row | Compound | GI50 [1] [nM] | TGI [1] [µM] | GI50 [2] [µM] | TGI [2] [µM] | GI50 [3] [nM] | TGI [3] [µM] | GI50 [4] [nM] | TGI [4] [µM] | GI50 [5] [nM] | TGI [5] [µM] | GI50 [6] [nM] | TGI [6] [µM] | GI50 [7] [µM] | TGI [7] [µM] | GI50 [8] [µM] | TGI [8] [µM] | GI50 [9] [µM] | TGI [9] [µM] | TGI [10] [µM]
1 | O=[N+]([O-])c1cccc(-c2nc3sccn3c2-c2ccnc(NCCCNS(=O)(=O)c3ccc(F)cc3)n2)c1 | 1590 | 6.02 | 3.16 | 9.61 | 2590 | 7.91 | 2190 | 10.8 | 2620 | 8.15 | 2940 | > 100 | 5.63 | > 100 | 4.98 | > 100 | 3.61 | > 100 | –
2 | CCCCOC(=O)/C(CC(=O)C=C(C)C)=N\NS(=O)(=O)c1ccc(C)cc1 | – | > 100 | – | > 100 | – | > 100 | – | > 100 | – | > 100 | – | > 100 | – | > 100 | – | – | – | > 100 | –
3 | CCCCCCCCCCCCCCCCC(C(=O)O)C(O)(CC(=O)O)C(=O)O (stereo unspecified) | – | – | – | 34.1 | – | 37.3 | – | > 100 | – | 35.5 | – | 46.6 | – | 35.1 | – | 75.8 | – | 89.3 | > 100
4 | CC(=O)/C=C1/c2ccccc2N(C(C)=O)C1O (stereo unspecified) | – | – | – | > 100 | – | > 100 | – | > 100 | – | > 100 | – | > 100 | – | – | – | – | – | > 100 | –
5 | O=c1cc/c(=N\Nc2ccccc2)c(=O)/c1=N/Nc1ccccc1 | – | – | > 50 | > 50 | > 50000 | > 50 | > 50000 | > 50 | > 50000 | > 50 | > 50000 | > 50 | > 50 | > 50 | > 50 | > 50 | > 50 | > 50 | –
6 | CC1C(=O)N=C2C(=CN(Cc3ccccc3)c3ccccc32)C(=O)N1C (stereo unspecified) | – | > 100 | – | – | – | > 100 | – | > 100 | – | – | – | > 100 | – | > 100 | – | > 100 | – | > 100 | > 100
7 | Cc1ccccc1C(C#N)/C(=N/NC(=O)c1cc2ccccc2cc1O)C(=O)Nc1cccc(Cl)c1 (stereo unspecified) | – | 78.3 | – | > 100 | – | > 100 | – | > 100 | – | > 100 | – | > 100 | – | 51.2 | – | – | – | 69.9 | –
8 | O=C(O)Cc1cc(=O)oc2cc(O)c(Cl)cc12 | – | > 100 | – | > 100 | – | > 100 | – | > 100 | – | > 100 | – | > 100 | – | > 100 | – | – | – | > 100 | –
9 | COC(=O)c1c/c(=N\NC(=O)CC(=O)Nc2ccccc2Cl)c2ccccc2o1 | – | > 100 | – | > 100 | – | > 100 | – | > 100 | – | > 100 | – | > 100 | – | > 100 | – | – | – | > 100 | –
10 | CCCOc1ccc(/C=C/c2cc(OC)c(OC)c(OC)c2)cc1 | – | 0.478 | 0.32 | > 100 | – | > 25.4 | – | > 100 | – | 1.06 | – | > 32.4 | – | 72.9 | – | – | – | 0.754 | –
11 | COC(=O)c1nc(-c2ccc(Cl)c(Cl)c2)nc2ccccc12 | – | > 100 | – | 62.8 | – | > 100 | – | > 100 | – | > 31.1 | – | > 100 | – | > 100 | – | – | – | > 61.3 | –
